Patent US20100036088A1, “Selective poly-N-substituted glycine antibiotics” (priority 2008, published 2010)
Numbered stars: 1 amine (or outer) side, 2 acyl side, 3 side chain; on linkers, the order of the positions; unused ones are H or OH. Square brackets hold non-standard residues; d marks the D form. Peptide text beside a SMILES is read from it. X3 = C[C@@H](c1ccc2ccccc2c1)N(CC(=O)[*:2])[*:1]; N(1S-Me-propyl)Gly = CC[C@H](C)NCC(=O)O; Nspe = C[C@H](NCC(=O)O)c1ccccc1; Nlys = NCCCCNCC(=O)O

System: human erythrocytes
Experiment: Hemolysis assay
Format: cell-based
Conditions: for HD50 (50% hemolytic dose) / HD10 (10% hemolytic dose): red cells of human, 1 h
Method: Hemolysis assays. Erythrocytes were isolated from freshly drawn, heparanized human blood and resuspended to 20 vol % in PBS (pH 7.4). In a 96-well microtiter plate, 100 μL erythrocyte suspension was added to 100 μL peptoid solution in PBS (prepared by 1:2 serial dilutions), or 100 μL PBS in the case of negative controls. 100% hemolysis wells contained 100 μL blood cell suspension with 100 μL 0.2 vol % Triton X-100. The plate was incubated for 1 h at 37° C., then each well was diluted with 150 μL PBS. The plate was then centrifuged at 1200 g for 15 min, 100 μL of the supernatant from each well transferred to a fresh microtiter plate, and A350 measured.
Hemolysis assays. Erythrocytes were isolated from freshly drawn, heparanized human blood and resuspended in PBS (pH 7.4) to make a 20% volume suspension. Peptoid solutions were prepared by serial dilution (2:1) in a 96-well microtiter plate. For test wells, 100 μL of erythrocyte suspension was added to 100 μL of peptoid solution in PBS; PBS without peptoid was used as the negative control and 0.2 vol % Triton X-100 as the positive control that indicates 100% hemolysis. After 1 hour incubation at 37° C., each well was diluted with 150 μL PBS. Plates were then centrifuged at 1,200×g for 15 minutes to pellet the cells. 30 μL of the supernatant from each well were transferred to the corresponding well of a second 96-well plate that contains 70 μL PBS.

How did the “HD50 (50% hemolytic dose)” value turn out when `C[C@@H](c1ccccc1)N(CC(N)=O)C(=O)CN(C(=O)CN(CCC(=O)O)C(=O)CN(C(=O)CN(C(=O)CN(CCC(=O)O)C(=O)CN(C(=O)CN(C(=O)CN(CCC(=O)O)C(=O)CN(C(=O)CN(C(=O)CNCCC(=O)O)[C@@H](C)c1ccccc1)[C@@H](C)c1ccccc1)[C@@H](C)c1ccccc1)[C@@H](C)c1ccccc1)[C@@H](C)c1ccccc1)[C@@H](C)c1ccccc1)[C@@H](C)c1ccccc1` [1-Nglu1,4,7,10] was run?
The value was >110/>110 μM.

Which “HD10 (10% hemolytic dose)” value does the source give for `C[C@@H](c1ccccc1)N(CC(N)=O)C(=O)CN(C(=O)CN(C(=O)CN(C(=O)CN(C(=O)CN(C(=O)CN(C(=O)CN(C(=O)CN(CCCCN)C(=O)CN(CCCCN)C(=O)CN(CCCCN)C(=O)CNCCCCN)[C@@H](C)c1ccccc1)[C@@H](C)c1ccccc1)[C@@H](C)c1ccccc1)[C@@H](C)c1ccccc1)[C@@H](C)c1ccccc1)[C@@H](C)c1ccccc1)[C@@H](C)c1ccccc1` [1block, H-(Nlys)4-(Nspe)8-NH2] here?
Its value is 18 µM.

And the “HD50 (50% hemolytic dose)” value?
Its value is 73 µM.

`CC[C@H](C)N(CC(=O)N(CC(N)=O)[C@@H](C)c1ccc2ccccc2c1)C(=O)CN(CCCCN)C(=O)CN(C(=O)CN(C(=O)CN(CCCCN)C(=O)CN(C(=O)CN(C(=O)CN(CCCCN)C(=O)CN(C(=O)CN(C(=O)CNCCCCN)[C@@H](C)CC)[C@@H](C)c1ccccc1)[C@@H](C)CC)[C@@H](C)c1ccc2ccccc2c1)[C@@H](C)CC)[C@@H](C)c1ccccc1` [2-Nsna6,12] (H-[Nlys][N(1S-Me-propyl)Gly][Nspe][Nlys][N(1S-Me-propyl)Gly][X3][Nlys][N(1S-Me-propyl)Gly][Nspe][Nlys][N(1S-Me-propyl)Gly][X3]-NH2) was tested. Which “HD10 (10% hemolytic dose)” value did it give?
Its value is 55 µM.

What about the “HD50 (50% hemolytic dose)” value of the same molecule?
Its value is > 120 µM.

How did the “HD10 (10% hemolytic dose)” value turn out when `CC[C@H](C)N(CC(=O)N(CC(N)=O)[C@@H](C)c1ccccc1)C(=O)CN(CCCCN)C(=O)CN(C(=O)CN(C(=O)CN(CCCCN)C(=O)CN(C(=O)CN(C(=O)CN(CCCCN)C(=O)CN(C(=O)CN(C(=O)CNCCCCN)[C@@H](C)CC)[C@@H](C)c1ccccc1)[C@@H](C)CC)[C@@H](C)c1ccccc1)[C@@H](C)CC)[C@@H](C)c1ccccc1` [compound 2, H-(Nlys-Nssb-Nspe)4-NH2] (H-[Nlys][N(1S-Me-propyl)Gly][Nspe][Nlys][N(1S-Me-propyl)Gly][Nspe][Nlys][N(1S-Me-propyl)Gly][Nspe][Nlys][N(1S-Me-propyl)Gly][Nspe]-NH2) was run?
Its value is >120/>120 μM.

And the “HD50 (50% hemolytic dose)” value?
Its value is >120/>120 μM.

For `C[C@@H](c1ccccc1)N(CC(N)=O)C(=O)CN(C(=O)CN(CCC(=O)O)C(=O)CN(C(=O)CN(C(=O)CN(CCCCN)C(=O)CN(C(=O)CN(C(=O)CN(CCC(=O)O)C(=O)CN(C(=O)CN(C(=O)CNCCCCN)[C@@H](C)c1ccccc1)[C@@H](C)c1ccccc1)[C@@H](C)c1ccccc1)[C@@H](C)c1ccccc1)[C@@H](C)c1ccccc1)[C@@H](C)c1ccccc1)[C@@H](C)c1ccccc1` [1-Nglu4,10], which “HD10 (10% hemolytic dose)” value is on record?
The value was 19 µM.

What about the “HD50 (50% hemolytic dose)” value of the same molecule?
The value was 40 µM.

Which results are given for `CC[C@H](C)N(CC(=O)N(CC(=O)N(CC(=O)N(CCCCN)CC(N)=O)[C@@H](C)c1ccccc1)[C@@H](C)CC)C(=O)CN(CCCCN)C(=O)CN(C(=O)CN(CCCCN)C(=O)CN(C(=O)CN(C(=O)CN(C(=O)CN(C(=O)CNCCCCN)[C@@H](C)CC)[C@@H](C)c1ccccc1)[C@@H](C)CC)[C@@H](C)c1ccccc1)[C@@H](C)c1ccccc1` [2scrambled, H-Nlys-Nssb-Nspe-Nssb-Nspe-Nlys-Nspe-Nlys-Nssb-Nssb-Nspe-Nlys-NH2] (H-[Nlys][N(1S-Me-propyl)Gly][Nspe][N(1S-Me-propyl)Gly][Nspe][Nlys][Nspe][Nlys][N(1S-Me-propyl)Gly][N(1S-Me-propyl)Gly][Nspe][Nlys]-NH2)?
no hemolysis up to: > 120 µM; HD10 (10% hemolytic dose): >120/>120 μM; HD50 (50% hemolytic dose): >120/>120 μM
